From US20140106380A1, “METHODS FOR IDENTIFYING INHIBITORS OF ABETA42 OLIGOMERS” (Merck Sharp & Dohme Crop., priority 2010, published 2014)

Tests used:
Format in all cases: biochemical
Aβ42 [1] = biological target: T1, Aβ42 (Homo sapiens, UniProt P05067); assay: Aβ42 CT AlphaLISA, inhibition of early oligomerization; settings: for Aβ42 CT immunoreactivity: Aβ42 1 nM, oligomerization at 4° C. overnight, different buffers, AlphaLISA
T1 construct: Synthetic human Aβ1-42, purchased from American Peptide Company (Sunnyvale, Calif.); purchased American Peptide Company (Sunnyvale, Calif.); host or cells: chemically synthesised peptide
Experimental: To test a compound's effect on inhibition of early oligomerization, SI, or a different testing compound, was mixed with the Aβ42 solution to make solutions with final concentrations of SI from 0.1 μM to 10 mM (0.1 μM, 1 μM, 10 μM, 100 μM, 1 mM, and 10 mM) and Aβ42 from 1 nM to 10 μM (1 nM, 10 nM, 100 nM, 1 μM and 10 μM). For example, a 10 μM Aβ42 solution contained, respectively, 0 μM, 0.1 μM, 1 μM, 10 μM, 100 μM, 1 mM and 10 mM SI. The same SI concentration series was applied to other concentrations of the Aβ42 solution indicated above. The mixtures were either incubated at 4° C. overnight or room temperature for two to three hours, before being used in the immunoreactive assay. Similarly, the presence of Aβ42 oligomers was detected using an Aβ42 C-terminal (CT) AlphaLISA assay (Eglen et al., 2008, Curr. Chem. Genomics, 1:2-10), a bead based proximity assay, based upon an oxygen channeling technology. The assay was carried out in a 384 well plate using an AlphaLISA® Human Amyloid β 1-[…]42 Research Immunoassay Kit (PerkinElmer, Waltham, Mass.) according to the manufacturer's directions. To make a 2.5× AlphaLISA acceptor bead and biotinylated anti-Aβ42 antibody mixture, 5.5 μl acceptor beads conjugated to anti-Aβ42 (12F4) and 5.5 μl biotin-Aβ42 antibody (binds to a epitope away from the CT of Aβ42) were added to 1,089 μl 1S AlphaLISA buffer and mixed by brief vortexing. To each well of a 384-well plate, 8 μl of the mix and 2 μl of an Aβ42 sample were added, followed by gentle tapping of the plate to mix the solutions. The plate was incubated at room temperature for one hour. The streptavidin donor bead solution was made in a dark room under safety light by mixing 20.1 μl of streptavidin donor beads with 1,279 μl 1× AlphaLISA buffer. The streptavidin donor bead solution, which binds to the biotinylated anti-Aβ42 antibody, was then added (10 μl/well) to the plate, sealed with an adhesive aluminum membrane, and incubated at room temperature for 30 minutes. Incubation brought the donor and acceptor beads into close proximity. An immunoreactive signal was generated when the donor bead released a singlet oxygen that, when excited at 680nm, was transferred to the acceptor bead, resulting in a light emission at 610 nm. The immunoreactive signals were read with a multilabel plate reader (EnVision®, PerkinElmer, Waltham, Mass.). The presence of Aβ42 oligomers was determined by a corresponding decrease in the C-terminal immunosignal. Values for the AlphaLISA assays were graphed and analyzed with Prism GraphPad software. Similar to signals generated with ELISA, the extent of Aβ42 oligomerization is inversely correlated with the magnitude of the CT immunosignal in AlphaLISA. Values for the ELISA assays were graphed and analyzed with Prism GraphPad software.

Aβ42 oligomers [2] = biological target: T2, Aβ42 oligomers (Homo sapiens, UniProt P05067); assay: Aβ42 NT immunoassay (6E10-6E10); settings: P<0.01
T2 construct: Synthetic human Aβ1-42, purchased from American Peptide Company (Sunnyvale, Calif.); purchased American Peptide Company (Sunnyvale, Calif.); host or cells: chemically synthesised peptide
Experimental: The effect of an Aβ oligomer inhibitor on the metastability of Aβ42 oligomers prepared according Example 1 was evaluated as follows. A sample of the 1 mM Aβ42 DMSO stock was diluted to 10 μM or 100 μM in PBS or Neurobasal (e.g., 10 μl of 1 mM Aβ42 DMSO stock to make 1 ml 10 μM solution or 100 μl A(342 DMSO stock to make 1 ml 100 μM solution). After incubation at 37° C., the diluted oligomer solutions were mixed with scyllo-inositol (SI), a naturally occurring plant sugar alcohol found most abundantly in the coconut palm, to make a final concentrations of 1 μM or 10 μM Aβ42 containing 10 mM SI. The non-compound control oligomer sample contained no SI. The mixtures were incubated on ice for two to three hours to allow establishment of new equilibrium (metastability) among Aβ42 species. The stabilized mixtures were then utilized in the immunoreactive assays. An Aβ42 N-terminal (NT) oligomer ELISA was performed by adopting a 6E10-6E10 ELISA originally developed in house at Merck and also reported by others (Gandy et al., 2010, Ann. Neurol. 68: 220-230; Xia et al., 2009, Arch. Neurol. 66:190-199). […] The immunoreactive signals were read with a multilabel plate reader (EnVision®, PerkinElmer, Waltham, Mass.). The presence of Aβ42 oligomers was determined by a corresponding increase in the NT immunosignal. Values for the ELISA assays were graphed and analyzed with Prism GraphPad software. […]

Aβ42 oligomers [3] = biological target: T2, Aβ42 oligomers; assay: Aβ42 CT immunoassay, metastability of pre-formed Aβ42 oligomers; settings: addition to pre-formed Aβ42 oligomers, P<0.01 relative to samples without SI
Experimental: The effect of an Aβ oligomer inhibitor on the metastability of Aβ42 oligomers prepared according Example 1 was evaluated as follows. […] Similarly, the presence of Aβ42 oligomers was detected using an Aβ42 C-terminal (CT) AlphaLISA assay (Eglen et al., 2008, Curr. Chem. Genomics, 1:2-10), a bead based proximity assay, based upon an oxygen channeling technology. […] The immunoreactive signals were read with a multilabel plate reader (EnVision®, PerkinElmer, Waltham, Mass.). The presence of Aβ42 oligomers was determined by a corresponding decrease in the C-terminal immunosignal. Values for the AlphaLISA assays were graphed and analyzed with Prism GraphPad software. […] Values for the ELISA assays were graphed and analyzed with Prism GraphPad software.

Aβ42 [4] = biological target: T1, Aβ42; assay: Dynamic light scattering of Aβ42 oligomerization; settings: Aβ42 40 μM, 25 °C, in the presence of SI
Experimental: Dynamic light scattering (DLS), also known as also known as quasi-elastic laser light scattering, offered another methodology to determine Aβ42 oligomerization by measuring the size distribution profile and shape of particles in solution. […] Sample preparation for the DLS assay was performed in a bio-safety cabinet. All solutions and reagents were pre-filtered with a 0.1 μm Whatman filter (Whatman, Piscataway, N.J.). Aβ42 (100 μM) made in PBS from the 1 mM DMSO stock (Example 1) was filtered with a 0.2 μm filter (Whatman, Piscataway, N.J.) and diluted to 50 μM to 10 μM with PBS or water. The samples were added to the DLS plate (50 μl/well) in the presence or absence of compounds and incubated at room temperature for seven to eight hours. The plate was briefly centrifuged (1 minute at 3000 rpm) and placed in the DynaPro DLS plate reader (Wyatt Technology, Dernbach, Germany), in which different parameters (normalized intensity, hydrodynamic radius, molecular weight, relative molecular mass, percent polydispersity, and sum of square) of the Aβ42 oligomer samples were measured, and analyzed with Dynamics 7.0.0 software (Wyatt Technology, Dernbach, Germany).

T1 sequence (P05067 672-713 limits assumed): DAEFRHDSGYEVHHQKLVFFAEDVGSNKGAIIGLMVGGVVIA
T2 sequence (P05067 672-713 limits assumed): as above

`O[C@H]1[C@H](O)[C@@H](O)[C@H](O)[C@@H](O)[C@@H]1O` [SI, scyllo-inositol] was tested, and the “Aβ42 CT immunoreactivity” value (Aβ42 [1]) was “dose dependent increase”, the NT immunoreactivity (Aβ42 oligomers [2]; addition to pre-formed Aβ42 oligomers) was “significant decrease” and the CT immunoreactivity (Aβ42 oligomers [3]) was “statistically significant increase”. For the same compound, the “% Intensity, Peak 1” value (Aβ42 [4]) was 0.7%, the “% Intensity, Peak 2” value (Aβ42 [4]) was 96.88% and the “% Mass, Peak 1” value (Aβ42 [4]) was 76%. For the same compound, the “% Mass, Peak 2” value (Aβ42 [4]) was 38%, the “MW-R, Peak 1” value (Aβ42 [4]) was 11.6 kDa and the “MW-R, Peak 2” value (Aβ42 [4]) was 527.1 kDa. The “Radius, Peak 1” value (Aβ42 [4]) was 2.5 nm, the “Radius, Peak 2” value (Aβ42 [4]) was “remained unchanged” and the “% Mass, Peak 1” value (Aβ42 [4]; listed as Ab42/SI) was 72.93%. For the same compound, the “% Mass, Peak 2” value (Aβ42 [4]; listed as Ab42/SI) was 38.75% and the “Radius, Peak 2” value (Aβ42 [4]; listed as Ab42/SI) was 21.4 nm.
`O[C@H]1[C@H](O)[C@@H](O)[C@H](O)[C@@H](O)[C@H]1O` [myo-inositol] was tested, and the “Aβ42 CT immunoreactivity” value (Aβ42 [1]) was “no effect”.
“Ac-Leu-Pro(N-CH3)Phe-Phe-Asp-NH2 [Peptide IV]” was tested, and the CT immunoreactivity (Aβ42 [1]; FIG. 7A) was “dose-depended increase” and the NT immunosignal (Aβ42 oligomers [2]; FIG. 7B) was “significant decrease”.
For `OC1C(O)C(O)C(O)C(O)C1O` (stereo not drawn) [chiro-inositol], the “Aβ42 CT immunoreactivity” value (Aβ42 [1]) was “no effect”.
